The results in this text go back to patent US12240857B2 (priority 2017, dated 2025).

The nature of one series: in vitro. The conditions noted are these: African green monkey, CC50.
Series [1] relates to BDBV mucin-domain-deleted glycoprotein pseudotyped VSV. The series can be described thus: microbe, parasite or virus in culture. Format: cell-based, Bundibugyo ebolavirus. As to conditions: Vesicular stomatitis virus, Vero, read-out: EC50 BDBV.
For series [2], the system named is EBOV mucin-domain-deleted glycoprotein pseudotyped VSV. The series can be described thus: microbe, parasite or virus in culture. Format: cell-based, Zaire ebolavirus. The conditions noted are these: Zaire ebolavirus, Vero, read-out: EC50 EBOV.

Structures are written as SMILES. A value given as a limit tells only on which side of the number the result lay.

In the case of `COC(=O)c1ccc(COc2ccccc2CN2CCN(C(=O)CNC(=O)C34CC5CC(CC3C5)C4)CC2)cc1` [Example A5], in the series “in vitro”, the CC50 was > 3000 nM. Further, the results for the EC50 in series [1] and in series [2] were 3900 nM and 1400 nM, respectively.
For `O=C(CNC(=O)C12CC3CC(C1)CC(c1ccccc1)(C3)C2)NC1CCN(Cc2ccccc2)CC1` [Example A6], in that order: 16800 nM, 250 nM and 210 nM.
For `O=C(CNC(=O)C12CC3CC(C1)CC(c1ccccc1)(C3)C2)N[C@@H]1CCN(Cc2ccccc2)C1` [Example A7], in that order: > 10000 nM, 840 nM and 480 nM.
For `O=C(CNC(=O)C12CC3CC(C1)CC(c1ccccc1)(C3)C2)N1CC2CC1CN2Cc1ccccc1` (stereo not drawn) [Example A8], in that order: > 10000 nM, 220 nM and 190 nM.
In the series “in vitro”, `O=C(N1CC2(CN(Cc3ccccc3)C2)C1)C12CC3CC(C1)CC(c1ccccc1)(C3)C2` [Example A9] registered a CC50 of 10800 nM. Also, the EC50 in series [1] was determined as 290 nM; in series [2] it was 230 nM.
For `O=C(N1CC2(CCN(Cc3ccccc3)C2)C1)C12CC3CC(C1)CC(c1ccccc1)(C3)C2` [Example A10], in that order: 6900 nM, 210 nM and 240 nM.
`O=C(CC12CC3CC(C1)CC(c1ccccc1)(C3)C2)NCC(=O)NC1CCN(Cc2ccccc2)CC1` [Example A12] registered a CC50 in “in vitro” of 2500 nM. The EC50 in series [1] is 430 nM; in series [2] it was 360 nM.
In the same order, the values of `O=C(CC12CC3CC(C1)CC(c1ccccc1)(C3)C2)NCC(=O)N[C@@H]1CCN(Cc2ccccc2)C1` [Example A13] are 2300 nM, 320 nM and 320 nM.
For `O=C(CC12CC3CC(C1)CC(c1ccccc1)(C3)C2)NCC(=O)N1CC2CC1CN2Cc1ccccc1` (stereo not drawn) [Example A14], in that order: 6200 nM, 230 nM and 200 nM.
Consider `O=C(N[C@H]1CCN(Cc2ccccc2)C1)C12CC3CC(C1)CC(c1ccccc1)(C3)C2` [Example A15], for which the CC50 in “in vitro” was > 10000 nM. Also, the EC50 in series [1] worked out at 2600 nM; in series [2] it was 1700 nM.
In the same order, the values of `O=C(CNC(=O)C12CC3CC(C1)CC(c1ccccc1)(C3)C2)N1CCN(Cc2ccccc2)CC1` [Example A16] are 12900 nM, 350 nM and 110 nM.
For `O=C(CC12CC3CC(C1)CC(c1ccccc1)(C3)C2)NCC(=O)N1CCN(Cc2ccccc2)CC1` [Example A17], in that order: > 10000 nM, 480 nM and 930 nM.
Regarding `O=C(N[C@@H]1CCN(Cc2ccccc2)C1)C12CC3CC(C1)CC(c1ccccc1)(C3)C2` [Example A19], the CC50 in the series “in vitro” is 3900 nM. The EC50 in series [1] was found to be 440 nM; in series [2] it was 290 nM.
In the same order, the values of `O=C(N1CC2CC1CN2Cc1ccccc1)C12CC3CC(C1)CC(c1ccccc1)(C3)C2` (stereo not drawn) [Example A20] are 10600 nM, 410 nM and 490 nM.
For `O=C(CC12CC3CC(C1)CC(c1ccccc1)(C3)C2)N[C@@H]1CCN(Cc2ccccc2)C1` [Example A24], in that order: 7200 nM, 290 nM and 290 nM.
In the same order, the values of `CN1CCN(C(=O)C23CC4CC(C2)CC(c2ccccc2)(C4)C3)CC1` [Example A25] are > 10000 nM, 190 nM and 450 nM.
For the compound `CN1CCC(N(C)C(=O)C23CC4CC(C2)CC(c2ccccc2)(C4)C3)CC1` [Example A27], the CC50 in the series “in vitro” is > 10000 nM. Also, the EC50 in series [1] came to 140 nM; in series [2], 280 nM.
In the same order, the values of `O=C(N1CCN(Cc2ccccc2)CC1)C12CC3CC(CC1C3)C2` [Example A28] are > 10000 nM, > 10000 nM and > 10000 nM.
For `O=C(N1CCN(Cc2ccccc2)CC1)C12CC3CC(C1)CC(c1ccccc1)(C3)C2` [Example A29], in that order: 5800 nM, 270 nM and 340 nM.
In the same order, the values of `O=C(CC12CC3CC(C1)CC(c1ccccc1)(C3)C2)N1CCN(Cc2ccccc2)CC1` [Example A30] are 7500 nM, 220 nM and 340 nM.
Turning to `O=C(C1C2CC3CC(C2)CC1C3)N1CCN(Cc2ccccc2)CC1` (stereo not drawn) [Example A31], in the series “in vitro”, the CC50 is > 10000 nM. The EC50 in series [1] and in series [2] was > 10000 nM each time.
The compound `O=C(CC12CC3CC(C1)CC(c1ccccc1)(C3)C2)NC1CCN(Cc2ccccc2)CC1` [Example A32] had a CC50 in “in vitro” of 1600 nM. The EC50 in series [1] is 260 nM; in series [2], 200 nM.
`O=C(CC12CC3CC(C1)CC(c1ccccc1)(C3)C2)N1CC2CC1CN2Cc1ccccc1` (stereo not drawn) [Example A33] showed a CC50 in “in vitro” of 2200 nM. For the same compound, the EC50 came to 300 nM in series [1] and 320 nM in series [2].
Take `O=C(N[C@@H]1CCCN(Cc2ccccc2)C1)C12CC3CC(C1)CC(c1ccccc1)(C3)C2` [Example A34]: the CC50 in “in vitro” was determined as 1100 nM. In addition, the EC50 worked out at 220 nM in series [1] and 170 nM in series [2].
For `CN1CC(NC(=O)C23CC4CC(C2)CC(c2ccccc2)(C4)C3)C1` [Example A35], in that order: > 10000 nM, 220 nM and 280 nM.
In the same order, the values of `O=C(NC1CN(Cc2ccccc2)C1)C12CC3CC(C1)CC(c1ccccc1)(C3)C2` [Example A36] are 4300 nM, 300 nM and 510 nM.
In the same order, the values of `CN1CC[C@@H](NC(=O)C23CC4CC(C2)CC(c2ccccc2)(C4)C3)C1` [Example A37] are > 10000 nM, 240 nM and 230 nM.
As to `CN1CCC[C@@H](NC(=O)C23CC4CC(C2)CC(c2ccccc2)(C4)C3)C1` [Example A38], in “in vitro”, the CC50 was > 10000 nM. For the same compound, the EC50 in series [1] worked out at 190 nM; in series [2] it was 250 nM.
With `CN1CC(NC(=O)CC23CC4CC(C2)CC(c2ccccc2)(C4)C3)C1` [Example A39], in “in vitro”, the CC50 was 19100 nM. For the same compound, the EC50 came out at 210 nM in series [1] and 510 nM in series [2].
For `CN1CC[C@@H](NC(=O)C23CC4CC(C)(C2)CC(c2ccccc2)(C4)C3)C1` (stereo partly drawn) [Example A41], in that order: 13600 nM, 180 nM and 103 nM.
In the same order, the values of `CN1CC(NC(=O)C23CC4CC(C)(C2)CC(c2ccccc2)(C4)C3)C1` (stereo not drawn) [Example A42] are 13900 nM, 190 nM and 121 nM.
In the same order, the values of `CC12CC3CC(C(=O)N[C@@H]4CN5CCC4CC5)(C1)CC(c1ccccc1)(C3)C2` (stereo partly drawn) [Example A44] are 11000 nM, 190 nM and 90 nM.
Take `CN(C)CCNC(=O)C12CC3CC(C)(C1)CC(c1ccccc1)(C3)C2` (stereo not drawn) [Example A46]: the CC50 in “in vitro” was determined as 13500 nM. The EC50 in series [1] turned out to be 210 nM; in series [2], 180 nM.
For `CC12CC3CC(C(=O)NCCN4CCOCC4)(C1)CC(c1ccccc1)(C3)C2` (stereo not drawn) [Example A48], in that order: 54900 nM, 2000 nM and 1040 nM.
